Each structure is given as a SMILES string. Activity calls are given as the source filed them. The rule behind the calls is not given here.

What is called bioavailability is dose-corrected exposure relative to a reference, in per cent. A lower bioavailability goes with poor availability. A word on the IC50: it is the concentration that gives 50% inhibition. Read a high IC50 as a need for much substance. What is called Tmax is the time from dosing to the highest level. In general, AUC(0-t) refers to the area under the concentration-time curve up to a stated or last time point. A higher AUC(0-t) goes with more exposure. The Vd is the apparent volume that relates the amount in the body to the concentration in plasma or blood. A low value points to little distribution into tissue. As a reminder, the clearance is a measure of how efficiently the substance is removed, as volume per time. Read a low clearance as inefficient removal. The term half-life denotes the time in which the quantity being followed falls by half. A lower half-life goes with rapid decline.

Data set [1] has as its system Tyrosine-protein kinase Blk (Homo sapiens), P51451 [UNDEFINED MUTATION]. Nature of the data set: Inhibition of full-length recombinant human BLK M287V mutant assessed as residual activity at 0.5 uM using poly(Glu, Tyr) 4:1 as substrate measured after 40 mins in presence of [gamma33P]ATP by scintillation counting method relative to control.
The nature of data set [2]: Oral bioavailability in male Sprague-Dawley rat at 10 mg/kg measured up to 24 hrs by LC/MS/MS analysis. As to conditions: in vivo. Type of data set: ADME, organism-based.
The target in data set [3] is BDNF/NT-3 growth factors receptor (Homo sapiens) (UniProt Q16620). Nature of the data set: Inhibition of human TrkB (455 to end residues) assessed as residual activity at 0.5 uM using poly(Glu, Tyr) 4:1 as substrate measured after 40 mins in presence of [gamma33P]ATP by scintillation counting method relative to control.
BDNF/NT-3 growth factors receptor (Homo sapiens), sequence (Q16620 32-822 limits assumed): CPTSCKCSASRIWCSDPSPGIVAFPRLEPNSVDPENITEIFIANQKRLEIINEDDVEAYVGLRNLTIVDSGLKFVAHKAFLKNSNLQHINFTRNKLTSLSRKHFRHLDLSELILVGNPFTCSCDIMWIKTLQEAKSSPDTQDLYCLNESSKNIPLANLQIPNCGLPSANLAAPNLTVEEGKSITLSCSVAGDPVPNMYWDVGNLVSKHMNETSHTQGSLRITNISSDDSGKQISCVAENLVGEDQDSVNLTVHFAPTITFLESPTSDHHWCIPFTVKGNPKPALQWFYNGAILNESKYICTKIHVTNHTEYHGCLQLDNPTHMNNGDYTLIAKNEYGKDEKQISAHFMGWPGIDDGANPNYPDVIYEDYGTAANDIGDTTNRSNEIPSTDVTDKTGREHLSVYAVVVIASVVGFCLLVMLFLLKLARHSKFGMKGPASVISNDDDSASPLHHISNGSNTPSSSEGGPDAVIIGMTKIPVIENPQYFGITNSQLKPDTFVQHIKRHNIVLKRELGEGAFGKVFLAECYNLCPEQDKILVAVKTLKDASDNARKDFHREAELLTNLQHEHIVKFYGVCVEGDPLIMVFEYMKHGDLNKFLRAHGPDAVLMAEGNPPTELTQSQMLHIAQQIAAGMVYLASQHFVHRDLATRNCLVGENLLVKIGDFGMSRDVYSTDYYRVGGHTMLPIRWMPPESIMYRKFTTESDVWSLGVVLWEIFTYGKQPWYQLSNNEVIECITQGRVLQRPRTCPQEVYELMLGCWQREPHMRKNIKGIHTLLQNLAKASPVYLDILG
The test system of data set [4] is Hepatocyte growth factor receptor (Homo sapiens), P08581 [Y1248H]. The data set can be described thus: Inhibition of recombinant human Met Y1248H mutant (974 to end residues) assessed as residual activity at 0.5 uM using KKKGQEEEYVFIE as substrate incubated for 40 mins in presence of [gamma-33P]-ATP by scintillation counting method relative to control.
The test system of the next data set is BaF3. Nature of the data set: Antitumor activity against mouse BaF3 cells transfected with LMNA-NTRK1-G595R mutant xenografted in mouse assessed as tumor growth inhibition at 5 to 20 mg/kg, po administered once daily for 21 days and measured twice weekly. Particulars: dose 5-20 mg/kg, time 21.0 day.
The target of data set [5] is Receptor-interacting serine/threonine-protein kinase 1 (Homo sapiens) (UniProt Q13546). Nature of the data set: Inhibition of recombinant human RIPK1 (8 to 322 residues) assessed as residual activity at 0.5 uM using myelin basic protein as substrate incubated for 40 mins in presence of [gamma33P]ATP by scintillation counting based radiometry assay relative to control.

In data set [6] the target is Proto-oncogene tyrosine-protein kinase ROS (Homo sapiens, UniProt P08922).
Proto-oncogene tyrosine-protein kinase ROS, sequence (P08922 whole entry): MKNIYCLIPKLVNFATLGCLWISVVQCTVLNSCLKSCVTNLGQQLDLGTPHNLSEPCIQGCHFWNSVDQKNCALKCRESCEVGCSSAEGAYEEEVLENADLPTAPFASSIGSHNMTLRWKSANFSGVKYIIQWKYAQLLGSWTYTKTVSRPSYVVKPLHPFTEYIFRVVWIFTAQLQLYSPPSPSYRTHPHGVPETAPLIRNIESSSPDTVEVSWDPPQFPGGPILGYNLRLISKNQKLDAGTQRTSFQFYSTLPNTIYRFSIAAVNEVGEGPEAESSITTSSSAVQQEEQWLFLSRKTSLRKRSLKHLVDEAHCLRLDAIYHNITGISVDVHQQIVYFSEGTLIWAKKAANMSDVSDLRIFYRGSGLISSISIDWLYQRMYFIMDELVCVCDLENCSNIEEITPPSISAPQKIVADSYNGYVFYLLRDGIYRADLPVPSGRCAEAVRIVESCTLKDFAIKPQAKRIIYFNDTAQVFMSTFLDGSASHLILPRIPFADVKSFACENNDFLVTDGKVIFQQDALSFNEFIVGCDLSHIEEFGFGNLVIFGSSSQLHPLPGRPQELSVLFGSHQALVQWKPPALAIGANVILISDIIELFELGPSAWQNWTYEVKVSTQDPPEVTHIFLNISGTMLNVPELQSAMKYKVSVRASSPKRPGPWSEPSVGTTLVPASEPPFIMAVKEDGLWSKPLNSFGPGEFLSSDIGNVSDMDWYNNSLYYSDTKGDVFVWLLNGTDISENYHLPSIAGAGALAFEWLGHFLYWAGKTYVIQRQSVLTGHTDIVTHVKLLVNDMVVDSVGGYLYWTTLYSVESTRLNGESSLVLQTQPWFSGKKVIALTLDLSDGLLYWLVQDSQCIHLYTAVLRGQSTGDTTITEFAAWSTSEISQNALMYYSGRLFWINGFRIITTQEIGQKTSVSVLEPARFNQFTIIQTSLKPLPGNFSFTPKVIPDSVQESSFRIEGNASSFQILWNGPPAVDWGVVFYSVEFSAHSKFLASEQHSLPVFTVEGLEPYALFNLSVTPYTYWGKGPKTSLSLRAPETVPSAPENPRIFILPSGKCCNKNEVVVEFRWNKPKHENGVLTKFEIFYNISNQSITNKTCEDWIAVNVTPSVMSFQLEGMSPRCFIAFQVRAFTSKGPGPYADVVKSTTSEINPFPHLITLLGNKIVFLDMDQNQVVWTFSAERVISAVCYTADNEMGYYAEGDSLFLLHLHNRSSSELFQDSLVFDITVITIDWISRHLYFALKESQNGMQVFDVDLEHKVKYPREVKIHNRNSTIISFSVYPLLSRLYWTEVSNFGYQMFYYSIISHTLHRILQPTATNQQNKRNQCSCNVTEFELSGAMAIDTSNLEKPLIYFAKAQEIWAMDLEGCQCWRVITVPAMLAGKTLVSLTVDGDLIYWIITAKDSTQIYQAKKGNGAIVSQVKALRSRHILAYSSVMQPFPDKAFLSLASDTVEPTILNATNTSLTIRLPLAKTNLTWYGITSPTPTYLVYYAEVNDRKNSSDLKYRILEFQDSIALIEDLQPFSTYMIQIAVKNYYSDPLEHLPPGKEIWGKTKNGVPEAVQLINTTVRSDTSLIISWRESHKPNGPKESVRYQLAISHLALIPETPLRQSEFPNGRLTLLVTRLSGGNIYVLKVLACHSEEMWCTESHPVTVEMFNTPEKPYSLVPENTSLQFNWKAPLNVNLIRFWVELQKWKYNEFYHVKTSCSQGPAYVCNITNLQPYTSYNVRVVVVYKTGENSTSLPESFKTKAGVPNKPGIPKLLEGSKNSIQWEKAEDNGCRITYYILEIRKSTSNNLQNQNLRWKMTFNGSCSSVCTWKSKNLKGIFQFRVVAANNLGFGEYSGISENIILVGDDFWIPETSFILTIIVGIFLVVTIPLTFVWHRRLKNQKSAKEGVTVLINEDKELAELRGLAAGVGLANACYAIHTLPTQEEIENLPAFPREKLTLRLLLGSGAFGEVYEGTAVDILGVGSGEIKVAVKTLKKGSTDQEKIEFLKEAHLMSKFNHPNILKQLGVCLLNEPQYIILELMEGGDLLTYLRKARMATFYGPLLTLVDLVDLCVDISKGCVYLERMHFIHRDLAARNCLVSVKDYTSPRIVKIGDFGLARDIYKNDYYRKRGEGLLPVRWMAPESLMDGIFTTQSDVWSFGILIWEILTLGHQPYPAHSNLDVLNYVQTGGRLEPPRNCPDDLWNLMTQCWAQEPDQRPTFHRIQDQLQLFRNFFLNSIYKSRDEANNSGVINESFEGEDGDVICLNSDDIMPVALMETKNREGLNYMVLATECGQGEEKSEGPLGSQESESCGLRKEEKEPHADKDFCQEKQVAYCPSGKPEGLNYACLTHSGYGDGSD
Description: Inhibition of ROS1 (unknown origin) incubated for 120 mins in presence of 33P-ATP
Data set [7] is described as follows: Tmax in female Sprague-Dawley rat at 10 mg/kg, po measured up to 24 hrs by LC-MS analysis. It counts as ADME, organism-based. Particulars: in vivo.
The nature of data set [8]: AUC (0 to t) in female Sprague-Dawley rat at 2 mg/kg, iv measured up to 24 hrs by LC-MS/MS analysis. Type of data set: ADME, organism-based. The arrangement: route intravenous, dose 2 mg/kg, time <=24. Particulars: in vivo.
The nature of data set [9]: Volume of distribution in male Sprague-Dawley rat at 2 mg/kg, iv measured up to 24 hrs by LC-MS/MS analysis. Particulars: in vivo. Type of data set: ADME, organism-based.
The target in data set [10] is Tyrosine-protein kinase JAK1 (Homo sapiens) (UniProt P23458). The data set can be described thus: Inhibition of human JAK1 (866 to end residues) assessed as residual activity at 0.5 uM using GEEPLYWSFPAKKK as substrate after 40 mins by [gamma-33ATP] radiometric assay relative to control.
Data set [11] can be described thus: Volume of distribution in female Sprague-Dawley rat at 2 mg/kg, iv measured up to 24 hrs by LC-MS/MS analysis. Type of data set: ADME, organism-based. Particulars: in vivo.
Data set [12] has as its system Mast/stem cell growth factor receptor Kit (Homo sapiens), P10721 [V560G]. The data set can be described thus: Inhibition of recombinant human C-Kit V560G mutant (544 to end residues) assessed as residual activity at 0.5 uM poly(Glu, Tyr) 4:1 as substrate incubated 40 mins in presence of [gamma-33ATP] by scintillation counting based radiometry assay relative to control.

The nature of data set [13]: Toxicity in […] xenografted with mouse BaF3 cells transfected with LMNA-NTRK1 assessed as weight loss at 20 mg/kg, po administered once daily for 21 days and measured twice weekly. Type of data set: organism-based. As to conditions: in vivo, 504 h, time 21 day.
For data set [14], the target named is NT-3 growth factor receptor (Homo sapiens, UniProt Q16288). Nature of the data set: Inhibition of human TrkC (510 to end residues) assessed as residual activity at 0.5 uM using GEEPLYWSFPAKKK as substrate measured after 40 mins in presence of [gamma33P]ATP by scintillation counting method relative to control.
Data set [15] deals with Vascular endothelial growth factor receptor 2 (Homo sapiens) (UniProt P35968). The data set can be described thus: Inhibition of human KDR (790 to end residues) assessed as residual activity at 0.5 uM using myelin basic protein as substrate after 40 mins by [gamma-33ATP] radiometric assay relative to control.
A short description of data set [16]: Clearance in Sprague-Dawley rat at 3 mg/kg measured up to 24 hrs by LC/MS/MS analysis. Particulars: in vivo. Type of data set: ADME, organism-based.
Data set [17] is described as follows: Oral bioavailability in Sprague-Dawley rat at 10 mg/kg measured up to 24 hrs by LC/MS/MS analysis. It counts as ADME, organism-based. Particulars: in vivo.
Data set [18] is described as follows: Half life in Sprague-Dawley rat at 3 mg/kg measured up to 24 hrs by LC-MS/MS analysis. It counts as ADME, organism-based. Particulars: in vivo.

Mast/stem cell growth factor receptor Kit (Homo sapiens), P10721 [V560G], sequence (P10721 whole entry V560G): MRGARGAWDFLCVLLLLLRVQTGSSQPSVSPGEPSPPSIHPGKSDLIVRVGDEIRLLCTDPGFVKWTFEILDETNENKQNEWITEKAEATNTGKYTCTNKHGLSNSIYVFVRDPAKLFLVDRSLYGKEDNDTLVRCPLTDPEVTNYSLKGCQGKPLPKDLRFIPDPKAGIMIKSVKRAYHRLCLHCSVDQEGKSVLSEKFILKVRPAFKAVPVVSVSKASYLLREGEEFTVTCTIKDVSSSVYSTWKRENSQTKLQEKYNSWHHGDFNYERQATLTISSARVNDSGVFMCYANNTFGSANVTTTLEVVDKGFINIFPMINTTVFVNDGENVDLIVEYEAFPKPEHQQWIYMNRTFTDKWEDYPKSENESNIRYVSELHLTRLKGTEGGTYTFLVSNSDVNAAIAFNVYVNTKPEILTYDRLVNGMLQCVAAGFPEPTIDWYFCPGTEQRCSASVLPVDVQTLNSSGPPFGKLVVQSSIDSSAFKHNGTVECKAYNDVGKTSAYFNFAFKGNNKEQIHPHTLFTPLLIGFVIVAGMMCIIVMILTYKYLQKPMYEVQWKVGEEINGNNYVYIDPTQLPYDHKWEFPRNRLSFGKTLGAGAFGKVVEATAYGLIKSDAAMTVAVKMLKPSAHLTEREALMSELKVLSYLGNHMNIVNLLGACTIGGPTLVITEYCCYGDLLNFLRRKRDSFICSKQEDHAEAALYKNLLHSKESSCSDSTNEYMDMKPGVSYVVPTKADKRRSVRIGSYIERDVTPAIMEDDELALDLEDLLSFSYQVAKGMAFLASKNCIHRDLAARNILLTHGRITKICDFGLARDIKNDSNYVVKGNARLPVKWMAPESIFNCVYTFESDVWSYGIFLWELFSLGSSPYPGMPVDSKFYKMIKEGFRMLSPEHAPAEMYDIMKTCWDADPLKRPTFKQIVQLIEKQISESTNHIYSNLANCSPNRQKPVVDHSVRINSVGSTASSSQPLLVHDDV
Tyrosine-protein kinase Blk (Homo sapiens), P51451 [UNDEFINED MUTATION], sequence (P51451 whole entry, looked up, stated change not applied): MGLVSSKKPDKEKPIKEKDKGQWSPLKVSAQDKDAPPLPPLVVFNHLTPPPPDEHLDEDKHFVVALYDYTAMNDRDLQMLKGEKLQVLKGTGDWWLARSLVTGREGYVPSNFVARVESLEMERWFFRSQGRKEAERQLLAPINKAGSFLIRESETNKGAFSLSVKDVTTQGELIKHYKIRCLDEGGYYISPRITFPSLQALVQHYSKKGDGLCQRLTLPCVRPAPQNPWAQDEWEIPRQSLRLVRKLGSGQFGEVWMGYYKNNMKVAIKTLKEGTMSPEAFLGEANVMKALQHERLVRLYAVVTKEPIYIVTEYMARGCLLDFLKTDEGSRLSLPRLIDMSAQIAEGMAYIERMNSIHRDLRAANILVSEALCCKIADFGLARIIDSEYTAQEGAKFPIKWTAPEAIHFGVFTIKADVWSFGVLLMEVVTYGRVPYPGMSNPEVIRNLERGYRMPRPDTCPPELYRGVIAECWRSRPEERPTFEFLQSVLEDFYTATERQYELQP

With `O=C1NC2(CC2)COc2ncc(F)cc2[C@H]2COCCN2c2ccn3ncc1c3n2`, the Activity in [1] is 46%; in data set [3], -1%; in data set [4] it was 89%; in [5], 102%; in [10] it was 91%; in [12], 109%. The Activity result is “Toxic” in data set [13], -3% in data set [14] and 108% in data set [15]. In [2], this molecule yielded a bioavailability of 56%. Further, the result in the data set with BaF3 was Active. In data set [6], this molecule gave an IC50 of 1 nM. Also, in data set [7], the time of peak concentration (Tmax) came to 40 min. This molecule also yielded an AUC(0-t) at 24 h in data set [8] of 10.3 µM·h. Moreover, the distribution volume (Vd) worked out at 1.39 L/kg in data set [9] and 1.46 L/kg in [11].

`C[C@@H]1CCc2ncc(F)cc2[C@H]2CCCN2c2ccn3ncc(c3n2)C(=O)N1` [SELITRECTINIB] came in with a clearance in [16] of 11.8 mL/min/kg. The same molecule displayed a bioavailability in [17] of 74%. For the same molecule, the half-life in data set [18] was 72 min.

The values are drawn from ChEMBL document CHEMBL5034019, “Discovery of the Next-Generation Pan-TRK Kinase Inhibitors for the Treatment of Cancer” (J Med Chem, 2021).
